Measured values as given in patent publication US6642276B2, “Controlled release macrolide pharmaceutical formulations” (M/S Ind-Swift Limited, priority 2001, dated 2003).

Tests used:
Type in all cases: physicochemical
[1] = pH solubility studies (mg of drug dissolved per ml of buffer)
[2] = pH of 0.2% suspension in water: methanol (19:1)
[3] = Stability studies of bulk drug, physical mixture and citrate salt on storage

CC[C@H]1OC(=O)[C@H](C)[C@@H](O[C@H]2C[C@@](C)(OC)[C@@H](O)[C@H](C)O2)[C@H](C)[C@@H](O[C@@H]2O[C@H](C)C[C@H](N(C)C)[C@H]2O)[C@](C)(OC)C[C@@H](C)C(=O)[C@H](C)[C@@H](O)[C@]1(C)O [Clarithromycin, 6-O-methylerythromycinA]
2.00 mg/ml: pH solubility studies (mg of Clarithromycin dissolved per ml of buffer) ([1]; pH 3.0 (KCl Buffer)) | pH solubility studies (mg of Clarithromycin dissolved per ml of buffer) ([1]; pH 7.0 (Phosphate Buffer))
No Change/No: Stability Studies: change / Degradation of Clarithromycin ([3]; 40° C. and 75% RH-2 Months) | Stability Studies: change / Degradation of Clarithromycin ([3]; 40° C. and 75% RH-3 Months) | Stability Studies: change / Degradation of Clarithromycin ([3]; 40° C. and 75% RH-4 Months) | Stability Studies: change / Degradation of Clarithromycin ([3]; 40° C. and 75% RH-5 Months) | Stability Studies: change / Degradation of Clarithromycin ([3]; 60° C.-1 month) | Stability Studies: change / Degradation of Clarithromycin ([3]; 60° C.-2 months) | Stability Studies: change / Degradation of Clarithromycin ([3]; 60° C.-3 months) | Stability Studies: change / Degradation of Clarithromycin ([3]; 85° C.-1 day) | Stability Studies: change / Degradation of Clarithromycin ([3]; 85° C.-4 days) | Stability Studies: change / Degradation of Clarithromycin ([3]; 85° C.-7 days) | Stability Studies: change / Degradation of Clarithromycin ([3]; 85°-15 days) | Stability Studies: change / Degradation of Clarithromycin ([3]; RT-3 Months) | Stability Studies: change / Degradation of Clarithromycin ([3]; RT-6 Months) | Stability Studies: change / Degradation of Clarithromycin ([3]; RT-9 Months) | Stability Studies: change / Degradation of Clarithromycin ([3]; RT-12 Months)
7.5 to 10.0: pH of 0.2% suspension in water: methanol (19:1) [2]
0.33 mg/ml: pH solubility studies (mg of Clarithromycin dissolved per ml of buffer) ([1]; pH 4.0 (KCl Buffer))
10.09 mg/ml: pH solubility studies (mg of Clarithromycin dissolved per ml of buffer) ([1]; pH 5.0 (Phosphate Buffer))
7.46 mg/ml: pH solubility studies (mg of Clarithromycin dissolved per ml of buffer) ([1]; pH 6.0 (Phosphate Buffer))
